Source: PubChem BioAssay AID743434 (The Scripps Research Institute Molecular Screening Center, 2014)
Calls of active or inactive are those of the source. How the calls were made is not given here.

Biological target: Sphingosine 1-phosphate receptor 3 (Homo sapiens) (UniProt Q99500)
Assay: S1P3 receptor antagonists, late-stage follow-up, cell-based, fluorescence, dose response (AID 743434)
Conditions: S1P3-expressing cells, fluorescence antagonist assay

Sphingosine 1-phosphate receptor 3 (Homo sapiens), sequence (Q99500 whole entry, looked up): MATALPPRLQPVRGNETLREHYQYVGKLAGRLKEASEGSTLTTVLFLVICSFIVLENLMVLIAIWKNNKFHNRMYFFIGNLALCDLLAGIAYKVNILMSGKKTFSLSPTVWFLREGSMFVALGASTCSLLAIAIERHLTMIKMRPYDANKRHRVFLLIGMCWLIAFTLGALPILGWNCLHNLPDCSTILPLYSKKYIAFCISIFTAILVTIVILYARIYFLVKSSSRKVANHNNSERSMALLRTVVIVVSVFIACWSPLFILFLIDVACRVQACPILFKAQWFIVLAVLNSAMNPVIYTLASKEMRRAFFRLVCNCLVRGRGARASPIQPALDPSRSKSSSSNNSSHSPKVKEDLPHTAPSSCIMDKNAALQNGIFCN

Row | Structure (SMILES) | IC50
1 | Cc1ccc(C(=O)NC(c2ccccc2)c2nc(-c3ccccc3)no2)cc1 (stereo not drawn) | inactive
2 | O=C(NC(Cc1ccccc1)c1nc(-c2ccccc2)no1)c1cccc(Cl)c1 (stereo not drawn) | 5.7 µM
3 | O=C(NC(c1ccc(Cl)c(Cl)c1)c1nc(-c2ccccc2)no1)c1ccc(Cl)cc1 (stereo not drawn) | 0.076 µM
4 | O=C(c1cccc(Cl)c1)N(CCO)C(c1ccc(Cl)c(Cl)c1)c1nc(-c2ccccc2)no1 (stereo not drawn) | inactive
5 | O=C(NC(c1ccc(Br)cc1)c1nc(-c2ccccc2)no1)c1ccc(Cl)c(Cl)c1 (stereo not drawn) | 0.214 µM
6 | O=C(NC(c1ccc(Cl)cc1)c1nc(-c2ccccn2)no1)c1cccc(Cl)c1 (stereo not drawn) | 2.9 µM
7 | O=C(NC(c1ccc(Cl)c(Cl)c1)c1nc(-c2ccccc2)no1)c1cccc(Cl)c1 (stereo not drawn) | 0.053 µM
8 | O=C(NC(c1ccc(Cl)cc1)c1nc(-c2ccccc2)no1)c1cccc(Cl)c1 (stereo not drawn) | 0.214 µM
9 | N#Cc1ccc(C(=O)NC(c2ccc(Cl)c(Cl)c2)c2nc(-c3ccccc3)no2)cc1 (stereo not drawn) | 0.32 µM
10 | O=C(NC(c1ccc(Cl)cc1)c1nc(-c2ccccc2)no1)c1ccc(Cl)c(Br)c1 (stereo not drawn) | 0.39 µM
11 | O=C(NC(c1ccccc1)c1nc(-c2ccccc2)no1)c1ccc(Cl)cc1 (stereo not drawn) | 2.4 µM
12 | O=C(NC(c1cccc(Cl)c1)c1nc(-c2ccccc2)no1)c1cc(Cl)cc(Cl)c1 (stereo not drawn) | 0.033 µM
13 | O=C(NC(c1nc(-c2ccccc2)no1)C1CCCCC1)c1ccc(Cl)c(Cl)c1 (stereo not drawn) | 3.3 µM
14 | O=C(NC(c1ccc(Cl)c(Cl)c1)c1nc(-c2ccccc2)no1)c1ccc(Cl)c(Cl)c1 (stereo not drawn) | 0.066 µM
15 | O=C(NC(c1nc(-c2ccccc2)no1)C1CCOCC1)c1ccc(Cl)c(Cl)c1 (stereo not drawn) | 2.8 µM
16 | O=C(NC(c1ccccc1)c1nc(-c2ccccc2)no1)c1cccc(Cl)n1 (stereo not drawn) | 2.8 µM
17 | O=C(NC(c1ccc(Cl)cc1)c1nc(-c2cccc(Cl)c2)no1)c1cccc(Cl)c1 (stereo not drawn) | 1.1 µM
18 | COc1ccc(C(=O)NC(c2ccccc2)c2nc(-c3ccccc3)no2)cc1 (stereo not drawn) | inactive
